Consider eight molecules from US20130296344A1, “CHROMENE DERIVATIVES AND THEIR ANALOGA AS WNT PATHWAY ANTAGONISTS” (Ruprecht-Karls-Universitat Heidelberg, priority 2010, published 2013).

Molecules are shown by their SMILES. Where two headings read alike, the source gives them in different places. Bounds are passed on as bounds.

Series [1] in a line: Cytotoxicity in HepG2 (CellTiterGlo). The series is classed as cell-based. As to conditions: human, HepG2 cells, 24 h after compound addition, 5 nM-100 microM, read-out: HepG2 IC50 (cytotoxic activity). Here is the method:
(§1) For examination of cytotoxicity in these cancer cell lines the commercial available CellTiterGlo® Reagent (Promega, USA) was used according to the manufactor. Compounds were applied to Hek293T (denoted (a)) or HepG2 (denoted (b)), cultured in Dulbecco's Modified Eagles Medium, supplemented with 10% fetal calf serum and 1% penicillin/streptomycin. Cells were grown in T75 flasks at 37° C., 5% CO2 and trypsinized when 60-80% confluent by adding 2 ml of 0.25% Trypsin-EDTA solution. Cells were then re-suspended into culture medium yielding approx. 4000 cells (a) or 4500 cells (b), suspended in 30 microl medium. 48 h after cell seeding, compounds were added to yield the desired final concentrations. 24 h after compound addition cytotoxicity was evaluated. For this purpose the media was removed and CellTiterGlo® was added according to the manufactors manual. In this assay the luciferase emission readout is directly correlated with the cellular amount of ATP, low luciferase emission thus is reflecting cytotoxicity of a compound.
For orientation: In ATP-based viability assays light output follows the ATP content of the culture.

Series [2] is described as follows: Cytotoxicity in Hek293T (CellTiterGlo). The series is classed as cell-based. The settings on record: human, Hek293T cells, 24 h after compound addition, 5 nM-100 microM, read-out: Hek293T IC50 (cytotoxic activity). On the procedure: as §1
In series [3] the test system is SW480 colon carcinoma cells. Description: Antiproliferative activity against SW480 colon carcinoma cells (nuclei count). It counts as cell-based. The settings on record: Homo sapiens, 5 nM-90 microM. Here is the method:
(§2) For examination of cell line-specific cytotoxicity, compounds were applied to human colorectal cancer cells (HCT116, denoted (1); SW480, denoted (2); Dld-1, denoted (3)) and human fibroblasts (HS-68, denoted (4)), cultured in Mc Coy's ((1)) and Dulbecco's Modified Eagles Medium ((2)-(4)), supplemented with 10% ((1)-(3)) and 20% ((4)) fetal calf serum and 1% penicillin/streptomycin. Cells were grown in T75 flasks at 37° C., 5% CO2 and trypsinized when 60-80% confluent by adding 2 ml of 0.25% Trypsin-EDTA (ethylenediaminetetraacetic acid) solution. Cells were then re-suspended into culture medium yielding approx. 750 cells, suspended in 45 microl medium, were plated into each well of a black 384-well plate for fluorescence imaging experiments. 24-36 hr later 5 microl compound solution (100 microM compound dissolved in ultra pure water containing 1% DMSO (dimethylsulfoxide)), were added to achieve a final concentration of 10 microM and were incubated for at least 72 hr. Compound incubation was terminated by (a) fixation and (b) permeabilisation of cells, followed by (c) fluorescence labeling of cell nuclei for cytometric quantification or by immunocytochemistry for microscopic evaluation of cell morphology. […] Solutions were incubated for 15 (a,b) and 30 min (c) in the dark at room temperature. Cells were washed twice between each step with 30 microl PBS. The assay system was miniaturized and adapted to automated workflow using liquid-handling robotics.
(§3) Cell line-specific cytotoxicity was quantified by counting the number of Hoechst labeled nuclei per well of a 384-well plate using a plate cytometer. Data obtained with the cytometer was analysed using standard data analysis software.
(§4) The examination of the antiproliferative activity against human colon carcinoma cells Dld1, HCT116 and SW480 was carried out in analogy to the procedure carried out for HS68. The respective compound applied in increasing concentrations yielding final concentrations per well of 5 nM-90 microM.

For series [4], the system named is HCT116 colon carcinoma cells. Nature of the series: Antiproliferative activity against HCT116 colon carcinoma cells (nuclei count). It counts as cell-based, human. On the procedure:
as §2, §3, §4

The next series has as its system Wnt pathway (Wnt1/Frzd8). Nature of the series: Wnt signaling pathway reporter gene assay (6xTCF-luciferase, Wnt1/Frizzled 8/LRP6 stimulated Hek293T cells). It counts as cell-based, mouse (Wnt1, human (LRP6). From the text:
To screen for small-molecule modulators of the Wnt signaling pathway, a reporter gene based assay describing the modulation of the TCF4 transcription factor was used. […]
(In a reporter assay the amount or activity of a reporter protein is the signal.)

The subject of series [5] is Dld1 colon carcinoma cells. Nature of the series: Antiproliferative activity against Dld1 colon carcinoma cells (nuclei count). It counts as cell-based, human. Here is the method: as §2, §3, §4
Series [6] relates to human fibroblasts (HS-68). Nature of the series: Cell line specific cytotoxicity, normal cells HS68 (nuclei count). As to conditions: at least 72 hr incubation, Hoechst nuclei count, read-out: HS68 IC50 (influence on normal cells). It counts as cell-based. Here is the method: as §2, §3
Identified hits were further evaluated by visual inspection of fluorescence micrographs obtained from imaging using a conventional fluorescence microscope.

[7] abbreviates: Homo sapiens, HCT-116, colon carcinoma cells, 5 nM-90 microM, nuclei count, read-out: HCT116 IC50.
Setting [8] is: Homo sapiens, HEK-293T, Hek293T, 6xTCF-luciferase reporter, 24 h incubation, 5 nM-100 microM, read-out: Wnt1/Frzd8 IC50 (Wnt pathway inhibitory activity).
The mark [9] stands for this setting: Homo sapiens, DLD-1, colon carcinoma cells, 5 nM-90 microM, nuclei count, read-out: Dld1 IC50.
[10] abbreviates: Table 7, racemate vs enantiomers, procedure of example 56, read-out: IC50 against colon cancer cell lines HCT 116.
Where [11] appears, read: Table 7, racemate vs enantiomers, procedure of example 54, read-out: IC50 against Wnt-Pathway.
[12] abbreviates: Table 7, racemate vs enantiomers, procedure of example 56, read-out: IC50 against colon cancer cell lines DLDl.

For the molecule `N#CC1=C(N)Oc2cc3c(cc2C1c1cc(F)c(F)c(F)c1)OCO3` (stereo not drawn) [(39), 6-Amino-8-(3,4,5-trifluoro-phenyl)-8H-[1,3]dioxolo[4,5-g]chromene-7-carbonitrile], the IC50 at 24 h in series [1] and in series [2] was greater than 90000 nM throughout. Besides, the IC50 in series [3] amounted to 2690 nM; in series [4] (setting [7]) it was 666 nM; in the series with Wnt pathway (Wnt1/Frzd8) (setting [8]), 1360 nM; in series [5] (setting [9]), 1080 nM.

For `N#CC1=C(N)Oc2cc3ccccc3cc2C1c1cc(F)c(F)c(F)c1` (stereo not drawn) [(28), 2-amino-4-(3,4,5-trifluoro-phenyl)-4H-benzo[g]chromene-3-carbonitrile], the IC50 was greater than 90000 nM in series [6]; 53600 nM in series [3]; 30300 nM in series [4] (setting [7]); 2400 nM in the series on Wnt pathway (Wnt1/Frzd8) (setting [8]); 22000 nM in series [5] (setting [9]). In addition, the IC50 at 24 h is 31700 nM in series [1] and greater than 90000 nM in series [2].

With `COc1cc(C2C(C#N)=C(N)Oc3c2ccc2ccc(O)nc32)cc(Br)c1OC` (stereo not drawn) [(19), 3-Amino-1-(3-bromo-4,5-dimethoxy-phenyl)-6-hydroxy-1H-4-oxa-5-aza-phenanthrene-2-carbonitrile], the IC50 at 24 h in series [1] and in series [2] was greater than 90000 nM each time. The IC50 in series [4] (setting [7]) is 17 nM; in the series on Wnt pathway (Wnt1/Frzd8) (setting [8]), 3 nM; in series [5] (setting [9]), 21 nM.

Take `COc1cc(C2C(C#N)=C(N)Oc3cc4ccccc4cc32)cc(Br)c1OC` (stereo not drawn) [(30), 2-Amino-4-(3-bromo-4,5-dimethoxy-phenyl)-4H-benzo[g]chromene-3-carbonitrile]: the IC50 was 5150 nM in series [6]; 7600 nM in series [3]; 2900 nM in series [4] (setting [7]); 697 nM in the series with Wnt pathway (Wnt1/Frzd8) (setting [8]); 8980 nM in series [5] (setting [9]). The IC50 at 24 h in series [1] and in series [2] was greater than 90000 nM in each case.

In the case of `COc1cc(C2C(C#N)=C(N)Oc3c2c(O)nc2ccccc32)cc(Br)c1OC` (stereo not drawn) [(17), 2-Amino-4-(3-bromo-4,5-dimethoxy-phenyl)-5-hydroxy-4H-pyrano[3,2-c]quinoline-3-carbonitrile], the IC50 at 24 h in series [1] and in series [2] was greater than 90000 nM in each case. Further, the IC50 was determined as 577 nM in series [3], 305 nM in series [4] (setting [7]), 20 nM in the series on Wnt pathway (Wnt1/Frzd8) (setting [8]) and 643 nM in series [5] (setting [9]).

`COc1cc(C2C(C#N)=C(N)Oc3c2ccc2ccc(N)nc32)cc(Br)c1OC` (racemic) [(20), 3,6-Diamino-1-(3-bromo-4,5-dimethoxy-phenyl)-1H-4-oxa-5-aza-phenanthrene-2-carbonitrile]: the values for the IC50 at 24 h in series [1] and in series [2] were 37000 nM and greater than 90000 nM, respectively. The IC50 in series [4] (Homo sapiens, HCT-116, Table 7, racemate vs enantiomers, procedure of example 56, read-out: IC50 against colon cancer cell lines HCT 116) was determined as 5 nM; in series [4] (setting [7]), 15 nM; with Wnt pathway (Wnt1/Frzd8) (setting [8]), 6 nM; with Wnt pathway (Wnt1/Frzd8) (Homo sapiens, HEK-293T, Table 7, racemate vs enantiomers, procedure of example 54, read-out: IC50 against Wnt-Pathway), 5 nM; in series [5] (Homo sapiens, DLD-1, Table 7, racemate vs enantiomers, procedure of example 56, read-out: IC50 against colon cancer cell lines DLDl) it was 10 nM; in series [5] (setting [9]) it was 14 nM.

Turning to `COc1cc(C2C(C#N)=C(N)Oc3c2ccc2ccc(N)nc32)cc(Br)c1OC` (single isomer, unassigned) [(20)-2, 3,6-Diamino-1-(3-bromo-4,5-dimethoxy-phenyl)-1H-4-oxa-5-aza-phenanthrene-2-carbonitrile], the results for the IC50 (in series [4] (setting [10]); with Wnt pathway (Wnt1/Frzd8) (setting [11]); in series [5] (setting [12])) were 354 nM, 330 nM and 356 nM, respectively.

With `COc1cc(C2C(C#N)=C(N)Oc3c2ccc2ccc(N)nc32)cc(Br)c1OC` (single isomer, unassigned) [(20)-1, 3,6-Diamino-1-(3-bromo-4,5-dimethoxy-phenyl)-1H-4-oxa-5-aza-phenanthrene-2-carbonitrile], the IC50 (in series [4] (setting [10]); in the series on Wnt pathway (Wnt1/Frzd8) (setting [11]); in series [5] (setting [12])) was less than 5 nM each time.
